Results published in ChEMBL document CHEMBL5705888, “Substrate specificity and inhibitors of LRRK2, a protein kinase mutated in Parkinson's disease” (Biochem J, 2009).

How the values were obtained:
[1] = biological target: Fibroblast growth factor receptor 1 (Homo sapiens) (UniProt P11362); test: Inhibition of FGFR1 (unknown origin) at 1 uM incubated for 30 mins in presence of [gamma-33P]ATP by multidrop micro reagent based assay relative to control
[2] = biological target: Misshapen-like kinase 1 (Homo sapiens) (UniProt Q8N4C8); test: Inhibition of MINK1 (unknown origin) at 1 uM incubated for 30 mins in presence of [gamma-33P]ATP by multidrop micro reagent based assay relative to control
[3] = biological target: Ribosomal protein S6 kinase alpha-1 (Homo sapiens) (UniProt Q15418); test: Inhibition of RSK1 (unknown origin) at 1 uM incubated for 30 mins in presence of [gamma-33P]ATP by multidrop micro reagent based assay relative to control; values are per cent of control
[4] = biological target: Leucine-rich repeat serine/threonine-protein kinase 2 (Homo sapiens, UniProt Q5S007); test: Inhibition of GST-tagged LRRK2 (1326 to 2527 residues) (unknown origin) using peptide as substrate incubated for 15 mins in presence of ATP by immunoblotting analysis
[5] = biological target: Mitogen-activated protein kinase 3 (Homo sapiens) (UniProt P27361); test: Inhibition of ERK1 (unknown origin) at 1 uM incubated for 30 mins in presence of [gamma-33P]ATP by multidrop micro reagent based assay relative to control; values are per cent of control
[6] = biological target: cAMP-dependent protein kinase (PKA) (Homo sapiens) (UniProt P22694+P17612+P22612); test: Inhibition of PKA (unknown origin) at 1 uM incubated for 30 mins in presence of [gamma-33P]ATP by multidrop micro reagent based assay relative to control; values are per cent of control
[7] = biological target: Ribosomal protein S6 kinase beta-1 (Homo sapiens) (UniProt P23443); test: Inhibition of S6K1 (unknown origin) at 1 uM incubated for 30 mins in presence of [gamma-33P]ATP by multidrop micro reagent based assay relative to control; values are per cent of control
[8] = biological target: Mitogen-activated protein kinase 11 (Homo sapiens) (UniProt Q15759); test: Inhibition of p38beta MAPK (unknown origin) at 1 uM incubated for 30 mins in presence of [gamma-33P]ATP by multidrop micro reagent based assay relative to control; values are per cent of control
[9] = biological target: Insulin-like growth factor 1 receptor (Homo sapiens) (UniProt P08069); test: Inhibition of IGF-1R (unknown origin) at 1 uM incubated for 30 mins in presence of [gamma-33P]ATP by multidrop micro reagent based assay relative to control; values are per cent of control
[10] = biological target: MAP kinase-interacting serine/threonine-protein kinase 2 (Homo sapiens) (UniProt Q9HBH9); test: Inhibition of MNK2 (unknown origin) at 1 uM incubated for 30 mins in presence of [gamma-33P]ATP by multidrop micro reagent based assay relative to control; values are per cent of control
[11] = biological target: Calcium/calmodulin-dependent protein kinase type 1 (Homo sapiens) (UniProt Q14012); test: Inhibition of CaMK1 (unknown origin) at 1 uM incubated for 30 mins in presence of [gamma-33P]ATP by multidrop micro reagent based assay relative to control; values are per cent of control
[12] = biological target: T1, Eukaryotic elongation factor 2 kinase (Homo sapiens) (UniProt O00418); test: Inhibition of EF2K (unknown origin) at 1 uM incubated for 30 mins in presence of [gamma-33P]ATP by multidrop micro reagent based assay relative to control
T1 sequence (whole entry): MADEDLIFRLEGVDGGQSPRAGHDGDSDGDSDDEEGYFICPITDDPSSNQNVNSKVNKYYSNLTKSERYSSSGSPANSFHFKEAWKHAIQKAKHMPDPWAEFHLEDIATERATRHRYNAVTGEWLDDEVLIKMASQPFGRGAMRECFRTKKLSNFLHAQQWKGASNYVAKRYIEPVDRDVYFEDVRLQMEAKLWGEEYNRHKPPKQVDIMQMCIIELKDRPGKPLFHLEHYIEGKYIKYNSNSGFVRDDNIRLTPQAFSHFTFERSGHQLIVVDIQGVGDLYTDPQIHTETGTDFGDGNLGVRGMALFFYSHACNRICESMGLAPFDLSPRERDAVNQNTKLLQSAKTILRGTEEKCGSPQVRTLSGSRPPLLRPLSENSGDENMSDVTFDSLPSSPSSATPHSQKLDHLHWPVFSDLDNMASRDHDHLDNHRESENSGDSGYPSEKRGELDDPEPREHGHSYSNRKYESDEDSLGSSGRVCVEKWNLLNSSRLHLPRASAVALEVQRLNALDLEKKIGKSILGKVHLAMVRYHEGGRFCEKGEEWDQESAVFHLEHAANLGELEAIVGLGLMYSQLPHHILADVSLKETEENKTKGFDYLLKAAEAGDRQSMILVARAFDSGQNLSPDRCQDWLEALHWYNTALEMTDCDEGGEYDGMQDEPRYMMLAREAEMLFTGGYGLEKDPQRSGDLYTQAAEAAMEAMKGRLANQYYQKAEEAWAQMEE

[13] = biological target: T2, Protein kinase C zeta type (Homo sapiens) (UniProt Q05513); test: Inhibition of PKCzeta (unknown origin) at 1 uM incubated for 30 mins in presence of [gamma-33P]ATP by multidrop micro reagent based assay relative to control; values are per cent of control
T2 sequence (whole entry): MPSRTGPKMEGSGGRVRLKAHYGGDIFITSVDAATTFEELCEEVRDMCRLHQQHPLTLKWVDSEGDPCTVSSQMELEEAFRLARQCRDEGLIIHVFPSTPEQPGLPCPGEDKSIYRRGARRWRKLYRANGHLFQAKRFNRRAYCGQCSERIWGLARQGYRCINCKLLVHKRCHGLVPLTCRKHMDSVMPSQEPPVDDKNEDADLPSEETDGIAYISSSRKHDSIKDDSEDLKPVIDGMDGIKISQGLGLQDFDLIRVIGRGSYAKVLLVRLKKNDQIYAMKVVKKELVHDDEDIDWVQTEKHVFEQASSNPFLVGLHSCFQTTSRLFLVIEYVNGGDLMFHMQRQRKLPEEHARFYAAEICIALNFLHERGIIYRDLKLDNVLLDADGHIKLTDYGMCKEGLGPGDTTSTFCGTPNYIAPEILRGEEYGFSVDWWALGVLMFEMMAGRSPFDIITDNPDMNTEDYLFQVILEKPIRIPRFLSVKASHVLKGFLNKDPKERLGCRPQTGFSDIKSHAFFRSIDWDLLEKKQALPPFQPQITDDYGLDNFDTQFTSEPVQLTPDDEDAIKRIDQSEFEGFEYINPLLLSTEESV

Chain of Mitogen-activated protein kinase 3 (Homo sapiens) (P27361 whole entry): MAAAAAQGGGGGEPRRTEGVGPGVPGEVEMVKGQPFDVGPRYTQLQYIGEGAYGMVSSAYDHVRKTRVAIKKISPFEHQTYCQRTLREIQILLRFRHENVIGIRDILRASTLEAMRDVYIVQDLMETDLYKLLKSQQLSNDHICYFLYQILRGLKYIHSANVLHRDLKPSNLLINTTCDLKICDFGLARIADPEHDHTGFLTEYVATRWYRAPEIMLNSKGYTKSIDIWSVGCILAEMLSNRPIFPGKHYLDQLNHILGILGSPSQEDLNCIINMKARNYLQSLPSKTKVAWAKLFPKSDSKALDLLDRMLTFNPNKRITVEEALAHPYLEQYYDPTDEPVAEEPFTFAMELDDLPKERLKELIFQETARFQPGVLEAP
Chain of Ribosomal protein S6 kinase beta-1 (Homo sapiens) (P23443 whole entry, looked up): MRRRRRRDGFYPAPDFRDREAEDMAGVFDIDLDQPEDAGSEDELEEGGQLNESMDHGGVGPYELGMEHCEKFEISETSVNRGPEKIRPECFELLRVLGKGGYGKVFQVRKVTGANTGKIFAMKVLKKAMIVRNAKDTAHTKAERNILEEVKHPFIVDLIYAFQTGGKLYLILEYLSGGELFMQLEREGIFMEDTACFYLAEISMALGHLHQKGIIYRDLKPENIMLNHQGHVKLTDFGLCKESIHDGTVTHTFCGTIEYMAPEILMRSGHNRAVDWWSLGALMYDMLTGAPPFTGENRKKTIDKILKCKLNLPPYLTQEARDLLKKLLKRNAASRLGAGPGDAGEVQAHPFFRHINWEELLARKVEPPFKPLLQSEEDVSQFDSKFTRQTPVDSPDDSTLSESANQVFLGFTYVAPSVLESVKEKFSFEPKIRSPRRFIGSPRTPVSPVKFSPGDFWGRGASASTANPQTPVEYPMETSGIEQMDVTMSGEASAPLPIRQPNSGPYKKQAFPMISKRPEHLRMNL
Chain of Ribosomal protein S6 kinase alpha-1 (Homo sapiens) (Q15418 whole entry, the tested form may be a part): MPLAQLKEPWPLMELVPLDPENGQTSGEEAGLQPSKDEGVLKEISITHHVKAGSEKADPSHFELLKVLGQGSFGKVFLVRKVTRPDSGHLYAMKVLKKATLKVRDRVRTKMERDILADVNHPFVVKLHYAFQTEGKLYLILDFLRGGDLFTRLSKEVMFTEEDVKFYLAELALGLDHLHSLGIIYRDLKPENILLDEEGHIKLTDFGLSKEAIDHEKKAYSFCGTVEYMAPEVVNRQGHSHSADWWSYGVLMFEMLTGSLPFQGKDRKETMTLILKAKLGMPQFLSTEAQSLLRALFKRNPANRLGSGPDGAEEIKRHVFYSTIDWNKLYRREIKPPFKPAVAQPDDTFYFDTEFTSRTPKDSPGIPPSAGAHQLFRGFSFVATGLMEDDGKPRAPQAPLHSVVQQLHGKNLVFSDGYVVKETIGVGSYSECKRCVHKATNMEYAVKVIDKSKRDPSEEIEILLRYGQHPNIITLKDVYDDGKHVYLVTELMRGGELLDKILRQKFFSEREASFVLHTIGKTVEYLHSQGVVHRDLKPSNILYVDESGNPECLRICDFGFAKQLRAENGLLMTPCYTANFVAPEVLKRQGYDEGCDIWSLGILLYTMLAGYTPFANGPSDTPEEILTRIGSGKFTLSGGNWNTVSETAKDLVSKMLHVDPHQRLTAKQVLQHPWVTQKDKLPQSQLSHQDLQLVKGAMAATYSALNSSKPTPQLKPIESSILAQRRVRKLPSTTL
Chain of Insulin-like growth factor 1 receptor (Homo sapiens) (P08069 31-736 limits assumed): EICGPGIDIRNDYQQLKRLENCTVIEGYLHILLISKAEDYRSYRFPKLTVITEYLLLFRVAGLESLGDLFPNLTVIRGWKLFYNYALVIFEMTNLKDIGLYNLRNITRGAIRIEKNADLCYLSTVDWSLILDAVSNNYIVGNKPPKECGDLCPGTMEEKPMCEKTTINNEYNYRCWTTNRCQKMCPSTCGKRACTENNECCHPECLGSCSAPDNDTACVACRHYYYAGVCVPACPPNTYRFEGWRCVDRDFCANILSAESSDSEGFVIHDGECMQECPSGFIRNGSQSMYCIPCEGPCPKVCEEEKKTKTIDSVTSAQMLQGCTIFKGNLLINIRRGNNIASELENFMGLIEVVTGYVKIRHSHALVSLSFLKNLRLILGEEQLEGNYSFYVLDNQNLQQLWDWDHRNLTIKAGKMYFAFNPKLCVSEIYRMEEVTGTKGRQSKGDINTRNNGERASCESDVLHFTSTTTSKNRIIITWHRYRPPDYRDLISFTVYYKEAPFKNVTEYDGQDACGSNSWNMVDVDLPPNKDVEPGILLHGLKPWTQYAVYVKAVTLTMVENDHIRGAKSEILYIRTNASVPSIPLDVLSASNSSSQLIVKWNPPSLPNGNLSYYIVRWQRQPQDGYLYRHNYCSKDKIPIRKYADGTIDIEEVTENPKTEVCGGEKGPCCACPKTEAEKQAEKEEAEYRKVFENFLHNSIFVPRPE
Chain of Insulin-like growth factor 1 receptor (Homo sapiens) (P08069 741-1367 limits assumed): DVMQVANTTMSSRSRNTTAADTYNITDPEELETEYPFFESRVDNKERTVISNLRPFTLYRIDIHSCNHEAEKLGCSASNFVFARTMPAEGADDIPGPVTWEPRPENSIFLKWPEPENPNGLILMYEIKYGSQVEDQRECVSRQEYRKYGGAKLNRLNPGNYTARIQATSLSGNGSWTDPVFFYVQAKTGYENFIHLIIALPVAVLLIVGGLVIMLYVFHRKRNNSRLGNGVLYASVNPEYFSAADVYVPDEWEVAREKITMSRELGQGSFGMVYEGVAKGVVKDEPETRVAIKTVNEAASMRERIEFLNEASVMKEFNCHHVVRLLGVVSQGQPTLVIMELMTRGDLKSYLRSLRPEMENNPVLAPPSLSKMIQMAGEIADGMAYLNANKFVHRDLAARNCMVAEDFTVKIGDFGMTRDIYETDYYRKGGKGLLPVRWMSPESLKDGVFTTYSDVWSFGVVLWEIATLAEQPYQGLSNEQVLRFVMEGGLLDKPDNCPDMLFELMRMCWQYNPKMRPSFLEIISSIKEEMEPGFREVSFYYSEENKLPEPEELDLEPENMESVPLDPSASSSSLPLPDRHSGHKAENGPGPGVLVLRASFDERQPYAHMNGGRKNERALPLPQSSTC
Chain of Fibroblast growth factor receptor 1 (Homo sapiens) (P11362 22-822 limits assumed): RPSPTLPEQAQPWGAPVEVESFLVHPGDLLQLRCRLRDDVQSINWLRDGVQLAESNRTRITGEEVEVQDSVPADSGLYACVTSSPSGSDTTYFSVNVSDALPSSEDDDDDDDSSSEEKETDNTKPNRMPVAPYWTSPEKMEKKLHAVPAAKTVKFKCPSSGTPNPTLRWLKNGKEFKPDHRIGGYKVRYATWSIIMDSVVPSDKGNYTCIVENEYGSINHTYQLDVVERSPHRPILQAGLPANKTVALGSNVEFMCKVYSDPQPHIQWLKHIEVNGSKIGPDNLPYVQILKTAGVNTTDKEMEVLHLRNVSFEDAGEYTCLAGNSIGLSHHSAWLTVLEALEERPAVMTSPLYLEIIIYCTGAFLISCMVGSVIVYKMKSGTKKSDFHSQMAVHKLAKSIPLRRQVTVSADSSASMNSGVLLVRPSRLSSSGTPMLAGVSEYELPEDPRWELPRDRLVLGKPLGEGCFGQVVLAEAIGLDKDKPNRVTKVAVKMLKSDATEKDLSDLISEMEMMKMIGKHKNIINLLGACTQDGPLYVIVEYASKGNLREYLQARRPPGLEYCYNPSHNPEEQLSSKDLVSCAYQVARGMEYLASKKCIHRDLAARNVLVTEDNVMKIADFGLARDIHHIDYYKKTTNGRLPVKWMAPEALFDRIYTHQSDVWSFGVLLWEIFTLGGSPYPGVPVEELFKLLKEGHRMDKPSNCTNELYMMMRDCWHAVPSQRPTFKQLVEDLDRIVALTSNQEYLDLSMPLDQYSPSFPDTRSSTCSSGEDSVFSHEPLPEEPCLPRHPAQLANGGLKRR
Chain of Mitogen-activated protein kinase 11 (Homo sapiens) (Q15759 whole entry): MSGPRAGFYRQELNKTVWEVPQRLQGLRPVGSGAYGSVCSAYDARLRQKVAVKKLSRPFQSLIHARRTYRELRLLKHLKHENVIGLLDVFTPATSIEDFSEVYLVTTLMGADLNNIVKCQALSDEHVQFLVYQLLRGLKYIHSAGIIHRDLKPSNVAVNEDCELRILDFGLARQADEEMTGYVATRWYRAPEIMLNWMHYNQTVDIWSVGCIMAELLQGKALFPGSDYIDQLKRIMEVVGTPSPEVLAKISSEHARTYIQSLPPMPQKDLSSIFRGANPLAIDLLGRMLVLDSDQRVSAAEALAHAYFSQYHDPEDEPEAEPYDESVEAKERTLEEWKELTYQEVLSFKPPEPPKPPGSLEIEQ
Chain of Calcium/calmodulin-dependent protein kinase type 1 (Homo sapiens) (Q14012 whole entry, looked up): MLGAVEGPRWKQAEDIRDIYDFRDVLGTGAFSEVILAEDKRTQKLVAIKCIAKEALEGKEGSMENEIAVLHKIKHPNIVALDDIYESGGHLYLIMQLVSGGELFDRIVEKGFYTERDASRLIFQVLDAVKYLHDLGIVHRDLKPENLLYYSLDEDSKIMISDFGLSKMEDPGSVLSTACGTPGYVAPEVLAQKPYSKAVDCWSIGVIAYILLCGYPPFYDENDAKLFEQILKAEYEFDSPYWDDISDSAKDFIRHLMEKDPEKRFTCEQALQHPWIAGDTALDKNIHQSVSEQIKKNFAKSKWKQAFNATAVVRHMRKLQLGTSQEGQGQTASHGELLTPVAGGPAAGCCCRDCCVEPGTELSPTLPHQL
Chain of MAP kinase-interacting serine/threonine-protein kinase 2 (Homo sapiens) (Q9HBH9 whole entry, looked up): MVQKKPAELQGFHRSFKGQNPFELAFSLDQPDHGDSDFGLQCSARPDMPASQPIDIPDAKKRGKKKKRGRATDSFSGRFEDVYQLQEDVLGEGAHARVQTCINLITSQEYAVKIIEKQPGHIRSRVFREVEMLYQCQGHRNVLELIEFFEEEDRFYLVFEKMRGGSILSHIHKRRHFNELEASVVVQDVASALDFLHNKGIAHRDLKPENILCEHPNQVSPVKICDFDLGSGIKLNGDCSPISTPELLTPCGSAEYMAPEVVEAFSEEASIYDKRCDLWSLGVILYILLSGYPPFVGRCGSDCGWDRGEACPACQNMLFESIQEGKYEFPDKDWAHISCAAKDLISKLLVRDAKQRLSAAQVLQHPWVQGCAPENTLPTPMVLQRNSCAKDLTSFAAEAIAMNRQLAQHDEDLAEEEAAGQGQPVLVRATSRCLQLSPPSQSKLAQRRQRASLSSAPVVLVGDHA

Q: Which results are given for CCN(CC)CCNC(=O)c1c(C)[nH]c(/C=C2\C(=O)Nc3ccc(F)cc32)c1C?
A: inhibition [1]: 29%; residual activity [2]: 8%; residual activity [3]: 78%

Q: Which results are given for CC1=C(C(=O)Nc2cc3cn[nH]c3cc2F)C(c2ccc(C(F)(F)F)cc2)CC(=O)N1 (configuration not stated)?
A: inhibition [1]: 95%; IC50 [4]: > 100 µM; residual activity [5]: 90%; residual activity [6]: 88%; residual activity [7]: 24%; residual activity [8]: 97%; residual activity [9]: 97%; residual activity [2]: 75%; residual activity [10]: 88%; residual activity [3]: 20%; residual activity [11]: 102%; residual activity [12]: 99%; residual activity [13]: 81%

Q: Which IC50 [4] does the source give for O=S(=O)(c1cccc2cnccc12)N1CCCNCC1 [FASUDIL] here?
A: > 30 µM

Q: Which results are given for Cc1cncc2cccc(S(=O)(=O)N3CCCNC[C@@H]3C)c12?
A: inhibition [1]: 35%; IC50 [4]: 0.244 µM; residual activity [5]: 105%; residual activity [6]: 76%; residual activity [7]: 72%; residual activity [8]: 107%; residual activity [9]: 113%; residual activity [2]: 104%; residual activity [10]: 49%; residual activity [3]: 57%; residual activity [11]: 105%; residual activity [12]: 99%; residual activity [13]: 86%

Q: Which IC50 [4] does the source give for CCn1c(-c2nonc2N)nc2cnc(Oc3cccc(NC(=O)c4ccc(OCCN5CCOCC5)cc4)c3)cc21 [GSK-269962A] here?
A: 3.7 µM

Q: And the residual activity [5]?
A: 106%

Q: And the residual activity [6]?
A: 22%

Q: What about the residual activity [7] of the same molecule?
A: 2%

Q: What about the residual activity [8] of the same molecule?
A: 113%

Q: And the residual activity [9]?
A: 104%

Q: What about the residual activity [2] of the same molecule?
A: 70%

Q: And the residual activity [10]?
A: 51%

Q: What about the residual activity [3] of the same molecule?
A: 12%

Q: What about the residual activity [11] of the same molecule?
A: 122%

Q: What about the residual activity [12] of the same molecule?
A: 113%

Q: And the residual activity [13]?
A: 5%
